Laboratory results as given in patent US9650390B2, “Water-soluble taxane derivatives and uses thereof” (priority 2014, dated 2017).

Tests used:
[1] = test system: human ovarian cancer SK-OV-3; settings: 24 mg/kg, D0-4 IV; for Body weight change (%) D4: nude mice; for T/C (%) D22 / Tumor volume (mm^3) (D22) / Tumor inhibitory percent (%) D22 / Tumor volume (mm^3) (D0): SK-OV-3 xenograft in nude mice; for Tumor inhibitory percent (%) D22: P = 0.000 vs control; for Tumor volume (mm^3) (D0): baseline at grouping (D0)
Description: Purpose: to evaluate and compare the inhibitory activity of the water soluble paclitaxel derivatives, paclitaxel and Abraxane® on subcutaneously xenografted tumor of human ovarian cancer SK-OV-3 in nude mice.
Human ovarian cancer SK-OV-3 cells were subcutaneously inoculated to nude mice. After the tumor volume reached 100-150 mm^3, the animals were randomly divided into groups (D0), and administered with the water soluble paclitaxel derivatives of the following formula, paclitaxel, and Abraxane®, respectively once per day for 5 days. The tumor volume was measured 2-3 times per week, the animals were weighed and the data were recorded until day 22 (D22) after grouping.
(§1) The tumor volume (V) was calculated according to the equation: V=½×a×b^2, wherein a and b represent the length and the width, respectively.
T/C (%)=(T−T0)/(C−C0)×100, wherein T and C represent the tumor volume at the end of the experiment, and T0 and C0 represent the tumor volume at the beginning of the experiment.

[2] = In vitro dissociation in blood plasma of rabbit; type: in vitro ADME, New Zealand white rabbits; settings: fresh New Zealand white rabbit plasma, 37° C.
Description: The obtained water soluble taxane derivatives of the following formulae were formulated as 0.2 mg/ml aqueous solutions. […]

[3] = In vitro dissociation in blood plasma of rat; type: in vitro ADME, SD rats; settings: fresh SD rat plasma, 37° C.; for Sampling time/Dissociation percent (%) 2 min: 2 min incubation; for Sampling time/Dissociation percent (%) 5 min: 5 min incubation; for Sampling time/Dissociation percent (%) 10 min: 10 min incubation
Description: The obtained water soluble taxane derivatives of the following formulae were formulated as 0.2 mg/ml aqueous solutions. […] After 2 min, 5 min and 10 min of incubation, 0.2 ml of solutions were respectively taken from each of the samples, and added to acetonitrile (0.4 ml) cooled to −20° C. for precipitation of protein.

[4] = test system: human prostate cancer PC-3; assay: Inhibitory activity of docetaxel derivatives on subcutaneously xenografted tumor PC-3 in nude mice; type: in vivo; settings: 33.6 mg/kg, D0 IV; for T/C (%) D20 / Tumor volume (mm^3) (D20) / Tumor inhibitory percent (%) D20 / Tumor volume (mm^3) (D0): PC-3 xenograft in nude mice; for Tumor inhibitory percent (%) D20: P = 0.000 vs control; for Tumor volume (mm^3) (D0): baseline at grouping (D0); for Weight change (%) D6: nude mice
Description: Purpose: to evaluate and compare the inhibitory activity of the water soluble docetaxel derivatives and docetaxel on subcutaneously xenografted tumor of human prostate cancer PC-3 in nude mice
Human prostate cancer PC-3 cells were subcutaneously inoculated into nude mice. After the tumor volume reached 100-150 mm^3, the animals were randomly divided into several groups, and administered with the water soluble docetaxel derivatives of the following formula and docetaxel, respectively once on the same day (D0). The tumor volume was measured 2-3 times per week, the animals were weighed and the data were recorded until day 20 (D20) after grouping.
as §1
T/C (%)=(T−T0)/(C−C0)×100, wherein T and C represent the tumor volume at the end of the experiment; and T0 and C0 represent the tumor volume at the beginning of the experiment.

| SMILES | Body weight change (%) D4 [1] [%] | T/C (%) D22 [1] [%] | Tumor volume (mm^3) (D22) [1] | Tumor inhibitory percent (%) D22 [1] [%] | Tumor volume (mm^3) (D0) [1] | Sampling time/Dissociation percent (%) 2 min [2] [%] | Sampling time/Dissociation percent (%) 5 min [2] [%] | Sampling time/Dissociation percent (%) 10 min [2] [%] | Sampling time/Dissociation percent (%) 2 min [3] [%] | Sampling time/Dissociation percent (%) 5 min [3] [%] | Sampling time/Dissociation percent (%) 10 min [3] [%] | T/C (%) D20 [4] [%] | Tumor volume (mm^3) (D20) [4] | Tumor inhibitory percent (%) D20 [4] [%] | Tumor volume (mm^3) (D0) [4] | Weight change (%) D6 [4] [%] |
| --- | --- | --- | --- | --- | --- | --- | --- | --- | --- | --- | --- | --- | --- | --- | --- | --- |
| CC(=O)O[C@H]1C(=O)[C@@]2(C)[C@H]([C@H](OC(=O)c3ccccc3)[C@]3(O)C[C@H](OC(=O)[C@H](OC(=O)C(CCN(C)C)C(F)F)[C@@H](NC(=O)c4ccccc4)c4ccccc4)C(C)=C1C3(C)C)[C@]1(OC(C)=O)CO[C@@H]1C[C@@H]2O.Cl (stereo partly drawn) [Compound C22, 2′-O-[4-N,N-dimethylamino-2(R,S)-2-difluoromethylbutyryl]paclitaxel hydrochloride] | −8.4 | −35 | 61.2 ± 13.5 | 135 | 133.4 ± 12.6 |  |  |  |  |  |  |  |  |  |  |  |
| CCN(C)CC[C@@H](F)C(=O)O[C@@H](C(=O)O[C@H]1C[C@@]2(O)[C@@H](OC(=O)c3ccccc3)[C@@H]3[C@]4(OC(C)=O)CO[C@@H]4C[C@H](O)[C@@]3(C)C(=O)[C@H](OC(C)=O)C(=C1C)C2(C)C)[C@@H](NC(=O)c1ccccc1)c1ccccc1.CS(=O)(=O)O [Compound C18, 2′-O-[4-N-methyl-N-ethylamino-2(R)-fluorobutyryl]paclitaxel methanesulfonate] | −7.0 | −53 | 55.7 ± 10.6 |  | 133.6 ± 9.4 |  |  |  |  |  |  |  |  |  |  |  |
| CC(=O)OC1C(=O)C2(C)C(O)CC3OCC3(OC(C)=O)C2C(OC(=O)c2ccccc2)C2(O)CC(OC(=O)C(OC(=O)C(F)CC(C)N(C)C)C(NC(=O)c3ccccc3)c3ccccc3)C(C)=C1C2(C)C.O=C(O)C=CC(=O)O [Compound C23, 2′-O-[4-N,N-dimethylamino-2(R)-fluorovaleryl]paclitaxel maleate] | −9.4 | −23 | 70.8 ± 16.8 | 60 | 135.8 ± 14.7 |  |  |  |  |  |  |  |  |  |  |  |
| CCN(CC)CC[C@H](F)C(=O)O[C@@H](C(=O)O[C@H]1C[C@@]2(O)[C@@H](OC(=O)c3ccccc3)[C@@H]3[C@]4(OC(C)=O)CO[C@@H]4C[C@H](O)[C@@]3(C)C(=O)[C@H](OC(C)=O)C(=C1C)C2(C)C)[C@@H](NC(=O)c1ccccc1)c1ccccc1.O=C(O)/C=C/C(=O)O [Compound C19, 2′-O-[4-N,N-diethylamino-2(S)-fluorobutyryl]paclitaxel fumarate] | −8.1 | −44 | 55.7 ± 10.1 |  | 133.6 ± 9.4 |  |  |  |  |  |  |  |  |  |  |  |
| CC(=O)O[C@H]1C(=O)[C@@]2(C)[C@H]([C@H](OC(=O)c3ccccc3)[C@]3(O)C[C@H](OC(=O)[C@H](OC(=O)C(F)CCN(C)C)[C@@H](NC(=O)c4ccccc4)c4ccccc4)C(C)=C1C3(C)C)[C@]1(OC(C)=O)CO[C@@H]1C[C@@H]2O.CS(=O)(=O)O (stereo partly drawn) [Compound C3, 2′-O-[4-N,N-dimethylamino-2(R,S)-fluorobutyryl]paclitaxel methanesulfonate] | −6.0 | −64 | 50.6 ± 9.7 |  |  | 76.5 | 94.6 | 100 | 63.7 | 96.8 | 100 |  |  |  |  |  |
| CC(=O)O[C@@]12CO[C@@H]1C[C@H](O)[C@@]1(C)C(=O)[C@H](O)C3=C(C)[C@@H](OC(=O)[C@H](OC(=O)[C@@H](F)CCN(C)C)[C@@H](NC(=O)OC(C)(C)C)c4ccccc4)C[C@@](O)([C@@H](OC(=O)c4ccccc4)[C@H]21)C3(C)C.CS(=O)(=O)O [Compound C5, 2′-O-[4-N,N-dimethylamino-2(S)-fluorobutyryl]docetaxel methanesulfonate] |  |  |  |  |  | 81.2 | 93.1 | 100 | 58.9 | 93.3 | 100 | −76 | 26.8 ± 12.6 | 175 | 113.4 ± 3.1 |  |
| CC(=O)O[C@H]1C(=O)[C@@]2(C)[C@H]([C@H](OC(=O)c3ccccc3)[C@]3(O)C[C@H](OC(=O)[C@H](OC(=O)[C@@H](F)CCN(C)C)[C@@H](NC(=O)c4ccccc4)c4ccccc4)C(C)=C1C3(C)C)[C@]1(OC(C)=O)CO[C@@H]1C[C@@H]2O.CS(=O)(=O)O [Compound C2, 2′-O-[4-N,N-dimethylamino-2(S)-fluorobutyryl]paclitaxel methanesulfonate] | −5.8 | −61 | 51.2 ± 11.2 |  |  | 69.7 | 98.1 | 100 | 62.8 | 96.5 | 100 |  |  |  |  |  |
| CC(=O)O[C@@]12CO[C@@H]1C[C@H](O)[C@@]1(C)C(=O)[C@H](O)C3=C(C)[C@@H](OC(=O)[C@H](OC(=O)[C@@H](CCN(C)C)C(F)(F)F)[C@@H](NC(=O)OC(C)(C)C)c4ccccc4)C[C@@](O)([C@@H](OC(=O)c4ccccc4)[C@H]21)C3(C)C.CS(=O)(=O)O [Compound C28, 2′-O-[4-N,N-dimethylamino-2(R)-2-trifluoromethylbutyryl]docetaxel methanesulfonate] |  |  |  |  |  |  |  |  |  |  |  | −46 | 34.5 ± 12.6 | 105 | 113.5 ± 2.8 | −13.9 |
| CC(=O)OC1C(=O)C2(C)C(O)CC3OCC3(OC(C)=O)C2C(OC(=O)c2ccccc2)C2(O)CC(OC(=O)C(OC(=O)C(CCN(C)C)C(F)(F)F)C(NC(=O)c3ccccc3)c3ccccc3)C(C)=C1C2(C)C.Cc1ccc(S(=O)(=O)O)cc1 [Compound C21, 2′-O-[4-N,N-dimethylamino-2(R,S)-2-trifluoromethylbutyryl]paclitaxel p-toluene sulfonate] | −8.9 | −48 | 57.3 ± 11.4 |  | 134.9 ± 11.4 |  |  |  |  |  |  |  |  |  |  |  |
| CC(=O)O[C@@]12CO[C@@H]1C[C@H](O)[C@@]1(C)C(=O)[C@H](O)C3=C(C)[C@@H](OC(=O)[C@H](OC(=O)C(F)CCN(C)C)[C@@H](NC(=O)OC(C)(C)C)c4ccccc4)C[C@@](O)([C@@H](OC(=O)c4ccccc4)[C@H]21)C3(C)C.CS(=O)(=O)O (stereo partly drawn) [Compound C6, 2′-O-[4-N,N-dimethylamino-2(R,S)-fluorobutyryl]docetaxel methanesulfonate] |  |  |  |  |  | 76.8 | 97.8 | 100 | 59.1 | 93.3 | 100 | −76 | 27.0 ± 12.3 | 175 | 113.8 ± 3.0 | −12.6 |
| CC(=O)O[C@H]1C(=O)[C@@]2(C)[C@H]([C@H](OC(=O)c3ccccc3)[C@]3(O)C[C@H](OC(=O)[C@H](OC(=O)C(F)CCN(C)C(C)C)[C@@H](NC(=O)c4ccccc4)c4ccccc4)C(C)=C1C3(C)C)[C@]1(OC(C)=O)CO[C@@H]1C[C@@H]2O.Cl (stereo partly drawn) [Compound C20, 2′-O-[4-N-methyl-N-isopropylamino-2(R,S)-fluorobutyryl]paclitaxel hydrochloride] | −10.3 | −38 | 60.4 ± 12.3 | 98 | 127.9 ± 11.4 |  |  |  |  |  |  |  |  |  |  |  |
| CC(=O)O[C@@]12CO[C@@H]1C[C@H](O)[C@@]1(C)C(=O)[C@H](O)C3=C(C)[C@@H](OC(=O)[C@H](OC(=O)[C@H](F)CCN(C)C)[C@@H](NC(=O)OC(C)(C)C)c4ccccc4)C[C@@](O)([C@@H](OC(=O)c4ccccc4)[C@H]21)C3(C)C.CS(=O)(=O)O [Compound C4, 2′-O-[4-N,N-dimethylamino-2(R)-fluorobutyryl]docetaxel methanesulfonate] |  |  |  |  |  | 81.6 | 94.8 | 100 | 59.2 | 93.4 | 100 | −77 |  | 177 | 113.7 ± 2.9 |  |
